# Where two headings read alike, the source gives them in different places.
# Columns and labels:
# [1] = Protein binding in rat plasma, equilibrium dialysis; assay type: in vitro ADME; conditions: equilibrium dialysis 5 hours 37°C, Theravance, Inc., unpublished data
# Experimental: (§1) The in vitro unbound fraction of reuptake inhibitors in rat brain homogenates (5 µM) and in rat plasma protein (1 µM) was evaluated using equilibrium dialysis using the HT-Dialysis device (Gayles-Ferry, CT). Brain homogenate or plasma was spiked with test compounds and dialyzed against blank PBS for 5 hours at 37°C. The matrices from both sides of the dialysis membranes were equalized and extracted with acetonitrile. Unbound fractions for each compound were calculated as the ratio of peak areas from the PBS side to peak areas from the tissue or plasma side. Peak areas were corrected for dilution of the tissue made prior to spiking compound. Quantification was via LC/MS/MS.
# [2] = Binding in rat brain homogenates, equilibrium dialysis; assay type: in vitro ADME; conditions: brain homogenate, equilibrium dialysis 5 hours 37°C, Theravance, Inc., unpublished data
# Experimental: as §1
# rat formalin model [3] = assay: animal or person; conditions: read-out: ED50, antinociception, drug alone
# rat formalin model [4] = test system: rat formalin model
# [5] = Plasma and brain unbound concentrations by LC/MS/MS; conditions: rat, 75 min post-dosing
# Experimental: Plasma and brain concentrations of reuptake inhibitors were determined by LC/MS/MS. Samples (10–20 µL) were injected in a Hypurity C18 column (50×2.1 mm; 3 µM) with a flow rate of 0.5 mL/min. […] Various gradient elutions were used and the mass spectrometers (Sciex API5000 and API4000; Applied Biosystems, Foster City, CA) were operated in positive ion multiple reaction monitoring mode.
# For the pharmacokinetic and bioanalytical analyses, free plasma and free brain concentrations were calculated using the in vitro unbound fractions in rat plasma and brain homogenates, respectively.
# SERT [6] = target: T1, SERT (Rattus norvegicus, UniProt P31652); assay: in vivo; conditions: ip, read-out: SERT occupancy ex vivo
# T1 sequence (P31652 whole entry): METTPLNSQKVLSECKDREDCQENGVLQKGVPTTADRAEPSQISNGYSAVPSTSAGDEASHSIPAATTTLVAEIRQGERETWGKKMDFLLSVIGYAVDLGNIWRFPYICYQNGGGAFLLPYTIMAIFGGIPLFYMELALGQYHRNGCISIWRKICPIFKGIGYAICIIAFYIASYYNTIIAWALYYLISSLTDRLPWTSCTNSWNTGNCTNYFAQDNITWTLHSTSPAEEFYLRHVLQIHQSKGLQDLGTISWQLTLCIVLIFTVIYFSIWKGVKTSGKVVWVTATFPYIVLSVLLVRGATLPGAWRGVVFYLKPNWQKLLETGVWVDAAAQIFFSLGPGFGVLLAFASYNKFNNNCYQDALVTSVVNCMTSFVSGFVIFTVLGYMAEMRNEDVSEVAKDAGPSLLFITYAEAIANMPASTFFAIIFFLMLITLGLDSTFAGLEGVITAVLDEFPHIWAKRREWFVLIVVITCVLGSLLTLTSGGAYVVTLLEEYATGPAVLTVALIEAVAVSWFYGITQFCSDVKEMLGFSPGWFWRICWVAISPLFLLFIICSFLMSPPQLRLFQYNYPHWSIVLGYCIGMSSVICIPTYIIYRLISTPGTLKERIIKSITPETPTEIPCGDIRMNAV
# Experimental: (§2) Ex vivo occupancy studies were performed similarly to those described previously [31]. At a single time point at the conclusion of phase 2A (75 min post-dose), a 5 mm^2 piece of frontal cortex was dissected, frozen rapidly, and stored at −80°C until use. Cortical crude homogenates were prepared and the initial rates (vi(vehicle) or vi, respectively) of [^3H]-citalopram (SERT) or [^3H]-nisoxetine (NET) binding determined over a 3-min time course. The % NET or SERT transporter occupancy for compound-dosed animals was calculated using the following equation: 100*(1−vi)/average vi(vehicle).
# SERT [7] = target: T1, SERT; conditions: summary over 3 and 10 mg/kg IP (discussion)
# Experimental: as §2
# SERT [8] = conditions: therapeutic dose of 60 mg; cited from earlier work
# NET = NET (Rattus norvegicus, UniProt Q63380); assay: in vivo; conditions: ip, read-out: NET occupancy ex vivo
# NET, sequence (Q63380 1-617): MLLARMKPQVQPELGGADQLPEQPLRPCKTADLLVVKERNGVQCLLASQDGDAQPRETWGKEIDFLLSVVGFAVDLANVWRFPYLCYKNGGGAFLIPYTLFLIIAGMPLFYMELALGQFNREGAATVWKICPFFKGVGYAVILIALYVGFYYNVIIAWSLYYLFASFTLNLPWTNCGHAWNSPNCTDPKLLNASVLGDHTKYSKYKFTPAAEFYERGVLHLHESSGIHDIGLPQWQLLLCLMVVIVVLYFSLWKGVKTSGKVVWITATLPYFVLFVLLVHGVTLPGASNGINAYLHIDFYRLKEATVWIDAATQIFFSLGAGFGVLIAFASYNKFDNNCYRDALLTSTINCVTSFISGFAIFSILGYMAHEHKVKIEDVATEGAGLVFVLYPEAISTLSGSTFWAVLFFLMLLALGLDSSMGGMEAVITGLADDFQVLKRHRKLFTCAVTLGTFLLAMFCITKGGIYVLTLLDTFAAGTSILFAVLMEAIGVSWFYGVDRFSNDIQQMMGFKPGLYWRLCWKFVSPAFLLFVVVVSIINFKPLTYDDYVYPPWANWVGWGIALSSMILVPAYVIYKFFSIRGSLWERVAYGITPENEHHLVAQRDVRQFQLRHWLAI
# Experimental: as §2
# rat RotaRod test = conditions: morphine 3 mg/kg SC alone, 60 min post-dose; statistically significant
# [9] = 10 mg/kg IP, drug alone, mean ± SEM
smiles,measurement,setting,value
CNCC[C@@H](Oc1ccccc1C)c1ccccc1 [atomoxetine],"fraction unbound at 5 h, 1 µM",[1],0.18
same,"fraction unbound at 5 h, 5 µM",[2],0.021
same,ED50,rat formalin model [3],27.8 mg/kg
same,inhibition of flinching,"rat formalin model [4]; 3 mg/kg IP, drug alone, mean ± SEM",4±11%
same,inhibition of flinching,rat formalin model [4]; [9],19±6%
same,concentration at 75 min,"[5]; in vivo, 10 mg/kg, [Brain]unbound, atomoxetine 10 mg/kg, − morphine, mean ± SD",58.2 ± 10.9 ng/g
same,concentration at 75 min,"[5]; in vivo, 10 mg/kg, [Plasma]unbound, atomoxetine 10 mg/kg, − morphine, mean ± SD",50.9 ± 5.8 ng/mL
same,concentration at 75 min,"[5]; in vivo, [Brain]unbound, atomoxetine 10 mg/kg + morphine 3 mg/kg",52.6 ± 14.4 ng/g
same,concentration at 75 min,"[5]; in vivo, [Plasma]unbound, atomoxetine 10 mg/kg + morphine 3 mg/kg",57.9 ± 12.5 ng/mL
same,receptor occupancy at 3 mg/kg,SERT [6],35 ± 9%
same,receptor occupancy at 10 mg/kg,SERT [6],64 ± 5%
same,SERT occupancy at doses that exhibited synergy with morphine,SERT [7],35 to 64%
CNCC[C@H](Oc1cccc2ccccc12)c1cccs1 [duloxetine],"fraction unbound at 5 h, 1 µM",[1],0.031
same,"fraction unbound at 5 h, 5 µM",[2],0.007
same,ED50,rat formalin model [3],10.9 mg/kg
same,inhibition of flinching,"rat formalin model [4]; 5 mg/kg IP, drug alone, mean ± SEM",19±12%
same,interaction with morphine at higher doses,"rat formalin model [4]; higher doses of duloxetine, antinociceptive in the absence of morphine, data not shown",exhibited additivity with morphine
same,occupancy of SERT by positron emission tomography,SERT [8],near-maximal occupancy
same,concentration at 75 min,"[5]; brain, intraperitoneal, 5 mg/kg, [Brain]unbound, duloxetine 5 mg/kg, − ondansetron − morphine",13 ± 1.5 ng/g
same,concentration at 75 min,"[5]; brain, intraperitoneal, [Brain]unbound, duloxetine 5 mg/kg + ondansetron 3 + morphine 1 mg/kg",16.5 ± 4.1 ng/g
same,concentration at 75 min,"[5]; plasma, intraperitoneal, 5 mg/kg, [Plasma]unbound, duloxetine 5 mg/kg, − ondansetron − morphine",4.98 ± 1.4 ng/mL
same,concentration at 75 min,"[5]; plasma, intraperitoneal, [Plasma]unbound, duloxetine 5 mg/kg + ondansetron 3 + morphine 1 mg/kg",4.55 ± 0.7 ng/mL
CCOc1ccccc1O[C@@H](c1ccccc1)[C@@H]1CNCCO1 [esreboxetine],receptor occupancy at 10 mg/kg,NET,82 ± 5%
same,inhibition of flinching,"rat formalin model [4]; rat, in vivo",17±9%
same,concentration at 75 min,"[5]; brain, intraperitoneal, 10 mg/kg, [Brain]unbound, esreboxetine 10 mg/kg, − fluoxetine − morphine",20.4 ± 14.4 ng/g
same,concentration at 75 min,"[5]; brain, intraperitoneal, [Brain]unbound, esreboxetine 10 mg/kg + fluoxetine 1 + morphine 1 mg/kg",25 ± 5.8 ng/g
same,concentration at 75 min,"[5]; brain, intraperitoneal, [Brain]unbound, esreboxetine 10 mg/kg + morphine 1 mg/kg",12.7 ± 9.9 ng/g
same,concentration at 75 min,"[5]; plasma, intraperitoneal, 10 mg/kg, [Plasma]unbound, esreboxetine 10 mg/kg, − fluoxetine − morphine",33.4 ± 12.2 ng/mL
same,concentration at 75 min,"[5]; plasma, intraperitoneal, [Plasma]unbound, esreboxetine 10 mg/kg + fluoxetine 1 + morphine 1 mg/kg",31.2 ± 8.6 ng/mL
same,concentration at 75 min,"[5]; plasma, intraperitoneal, [Plasma]unbound, esreboxetine 10 mg/kg + morphine 1 mg/kg",21 ± 17.7 ng/mL
same,receptor occupancy at 10 mg/kg,SERT [6],3 ± 5%
CNCCC(Oc1ccc(C(F)(F)F)cc1)c1ccccc1 (stereo not shown) [fluoxetine],"fraction unbound at 5 h, 1 µM",[1],0.067
same,"fraction unbound at 5 h, 5 µM",[2],0.0045
same,inhibition of flinching,rat formalin model [4]; [9],9±4%
CN1CC[C@]23c4c5ccc(O)c4O[C@H]2[C@@H](O)C=C[C@H]3[C@H]1C5 [morphine],reduction in walking time,rat RotaRod test,65±12%
same,ED50,rat formalin model [3],2.3 mg/kg
same,inhibition of flinching,"rat formalin model [4]; 1 mg/kg SC, alone, mean ± SEM",18±5%
same,inhibition of flinching (decrease in nociceptive behavior),"rat formalin model [4]; 3 mg/kg SC, alone, mean ± SEM",77%±6
C=CCN1CC[C@]23c4c5ccc(O)c4O[C@H]2C(=O)CC[C@@]3(O)[C@H]1C5 [naloxone],effect on atomoxetine-induced antinociception,"rat formalin model [4]; naloxone 5 mg/kg IP, atomoxetine 10 and 30 mg/kg IP",failed to attenuate
same,effect on morphine-induced antinociception,"rat formalin model [4]; naloxone 5 mg/kg IP, morphine 3 mg/kg, p<0.001",effectively blocked
Cc1nccn1CC1CCc2c(c3ccccc3n2C)C1=O (stereo not shown) [ondansetron],"antinociceptive activity, alone","rat formalin model [4]; rat, in vivo",did not exhibit antinociceptive activity
same,effect on antinociceptive response to duloxetine and morphine,"rat formalin model [4]; rat, in vivo",potentiated the antinociceptive response
same,effect on antinociceptive response to fluoxetine and morphine,"rat formalin model [4]; rat, in vivo",failed to potentiate the antinociceptive response

# Source: PMC3787017, “Relative Contributions of Norepinephrine and Serotonin Transporters to Antinociceptive Synergy between Monoamine Reuptake Inhibitors and Morphine in the Rat Formalin Model” (PLoS ONE, 2013)
